What was measured:
physchem [1] = details: octanol/water
Description: Partition coefficient (logP) (HPLC)

Rattus norvegicus [2] = species on record: Rattus norvegicus; assay: animal or person
Description: Effective dose for adjuvant arthritis assay

Rattus norvegicus [3] = species on record: Rattus norvegicus; assay: Antiinflammatory activity using adjuvant arthritis assay; format: functional
Rattus norvegicus [4] = species on record: Rattus norvegicus; assay: animal or person; remark: listed apart in the source
Description: Effective dose for rat paw assay

Mus musculus [5] = species on record: Mus musculus; assay: animal or person
Description: Effective dose for mouse writhing assay

Rattus norvegicus [6] = species on record: Rattus norvegicus; assay: animal or person; details: 168 h
Description: Effective dose causing 50 % gastrointestinal erosion using seven-day chronic assay.

Rattus norvegicus [7] = species on record: Rattus norvegicus; assay: animal or person; details: 168 h, read-out: MED
Description: Minimum effective dose causing gastrointestinal erosion using seven-day chronic assay.

in vivo = details: rat
physchem [8] = assay: physchem
Description: Dissociation constant (pKa)

Rattus norvegicus [9] = species on record: Rattus norvegicus; assay: animal or person; remark: listed apart in the source
Description: Effective dose for cotton pellet assay

[10] = Therapeutic ratio as the ratio of MED value to that of ED30 for the carrageenan rat paw assay.; format: ADME; details: read-out: Therapeutic ratio
Mus musculus [11] = species on record: Mus musculus; assay: […] activity using mouse writhing assay.; format: functional

Row | logP (physchem [1]) | SMILES | further results
1 | 3.17 | O=C(c1ccccc1)c1ccc2n1CCCCC2C(=O)O (configuration not stated) | 
2 | 2.18 | O=C(c1cccc(O)c1)c1ccc2n1CCC2C(=O)O (configuration not stated) | 
3 | 2.61 | O=C(c1cccc(Cl)c1)c1ccc2n1CCCC2C(=O)O (configuration not stated) | 
4 | 3.32 | O=C(c1ccc(F)cc1)c1ccc2n1CCCCC2C(=O)O (configuration not stated) | 
5 | 3.68 | CSc1ccc(C(=O)c2ccc3n2CCC3C(=O)O)cc1 (configuration not stated) | 
6 | 2.47 | O=C(c1c(F)cccc1F)c1ccc2n1CCC2C(=O)O (configuration not stated) | 
7 | 2.9 | COc1ccc(C(=O)c2ccc3n2CCCC3C(=O)O)cc1 (configuration not stated) | 
8 | 2.27 | CC(=O)c1ccc(C(=O)c2ccc3n2CCC3C(=O)O)cc1 (configuration not stated) | 
9 | 3.97 | O=C(c1ccc2ccccc2c1)c1ccc2n1CCC2C(=O)O (configuration not stated) | pKa (physchem [8]): 3.44
10 | 2.47 | O=C(c1cccc([N+](=O)[O-])c1)c1ccc2n1CCC2C(=O)O (configuration not stated) | 
11 | 2.6 | CC(C)(C)C(=O)c1ccc2n1CCC2C(=O)O (configuration not stated) | pKa (physchem [8]): 3.57
12 | 2.74 | COc1cccc(C(=O)c2ccc3n2CCC3C(=O)O)c1 (configuration not stated) | 
13 | 4.27 | O=C(c1ccc(-c2ccccc2)cc1)c1ccc2n1CCC2C(=O)O (configuration not stated) | 
14 | 3.54 | CSc1ccc(C(=O)c2ccc3n2CCCC3C(=O)O)cc1 (configuration not stated) | 
15 | 3.35 | Cc1ccc(C(=O)c2ccc3n2CCCC3C(=O)O)cc1 (configuration not stated) | 
16 | 3.6 | O=C(c1ccc(Br)cc1)c1ccc2n1CCC2C(=O)O (configuration not stated) | 
17 | 3.23 | Cc1cccc(C(=O)c2ccc3n2CCC3C(=O)O)c1 (configuration not stated) | pKa (physchem [8]): 3.44
18 | 1.53 | CS(=O)(=O)c1ccc(C(=O)c2ccc3n2CCCC3C(=O)O)cc1 (configuration not stated) | 
19 | 3.24 | O=C(c1c(F)c(F)c(F)c(F)c1F)c1ccc2n1CCC2C(=O)O (configuration not stated) | 
20 | 3.69 | O=C(c1cccc(C(F)(F)F)c1)c1ccc2n1CCC2C(=O)O (configuration not stated) | 
21 | 3.56 | O=C(c1ccc(Cl)cc1Cl)c1ccc2n1CCC2C(=O)O (configuration not stated) | 
22 | 2.98 | O=C(c1ccccc1I)c1ccc2n1CCC2C(=O)O (configuration not stated) | 
23 | 2.41 | O=C(c1ccc2n1CCC2C(=O)O)C1CCC1 (configuration not stated) | pKa (physchem [8]): 3.54
24 | 2.71 | O=C(c1ccccc1Cl)c1ccc2n1CCC2C(=O)O (configuration not stated) | pKa (physchem [8]): 4.33
25 | 2.21 | N#Cc1ccc(C(=O)c2ccc3n2CCC3C(=O)O)cc1 (configuration not stated) | 

Row | logP (physchem [1]) | SMILES | further results
26 | 2.94 | O=C(c1ccc(F)cc1)c1ccc2n1CCCC2C(=O)O (configuration not stated) | 
27 | 3.92 | CSc1ccc(C(=O)c2ccc3n2CCCCC3C(=O)O)cc1 (configuration not stated) | 
28 | 1.08 | C[S+]([O-])c1ccc(C(=O)c2ccc3n2CCC3C(=O)O)cc1 (configuration not stated) | 
29 | 3.33 | C#Cc1ccc(C(=O)c2ccc3n2CCC3C(=O)O)cc1 (configuration not stated) | 
30 | 2.52 | O=C(Cc1ccccc1)c1ccc2n1CCC2C(=O)O (configuration not stated) | 
31 | 3.61 | O=C(c1ccc2c(c1)OCO2)c1ccc2n1CCC2C(=O)O (configuration not stated) | 
32 | 3.63 | C#CCOc1ccc(C(=O)c2ccc3n2CCC3C(=O)O)cc1 (configuration not stated) | 
33 | 2.9 | Cc1ccccc1C(=O)c1ccc2n1CCC2C(=O)O (configuration not stated) | pKa (physchem [8]): 3.44
34 | 2.9 | O=C(c1cccc(F)c1)c1ccc2n1CCC2C(=O)O (configuration not stated) | pKa (physchem [8]): 3.46
35 | 2.57 | O=C(c1ccccc1)c1ccc2n1CC(C(=O)O)C2 (configuration not stated) | 
36 | 2.94 | O=C(c1ccccc1O)c1ccc2n1CCC2C(=O)O (configuration not stated) | 
37 | 3.71 | O=C(c1ccc(C(F)(F)F)cc1)c1ccc2n1CCC2C(=O)O (configuration not stated) | 
38 | 1.41 | CS(=O)(=O)c1ccc(C(=O)c2ccc3n2CCC3C(=O)O)cc1 (configuration not stated) | 
39 | 2.48 | O=C(c1ccc([N+](=O)[O-])cc1)c1ccc2n1CCC2C(=O)O (configuration not stated) | 
40 | 3.3 | CCOc1ccc(C(=O)c2ccc3n2CCC3C(=O)O)cc1 (configuration not stated) | pKa (physchem [8]): 3.46
41 | 3.6 | O=C(c1ccc(Cl)cc1)c1ccc2n1CCCC2C(=O)O (configuration not stated) | 
42 | 3.45 | O=C(c1ccc(Cl)cc1)c1ccc2n1CC(C(=O)O)C2 (configuration not stated) | 
43 | 2.59 | O=C(c1ccc(F)cc1F)c1ccc2n1CCC2C(=O)O (configuration not stated) | 
44 | 3.31 | CCOc1cccc(C(=O)c2ccc3n2CCC3C(=O)O)c1 (configuration not stated) | pKa (physchem [8]): 3.46
45 | 2.14 | N#Cc1cccc(C(=O)c2ccc3n2CCC3C(=O)O)c1 (configuration not stated) | 
46 | 3.48 | C=CCOc1ccc(C(=O)c2ccc3n2CCC3C(=O)O)cc1 (configuration not stated) | 
47 | 3.38 | CC(C)Oc1ccc(C(=O)c2ccc3n2CCC3C(=O)O)cc1 (configuration not stated) | pKa (physchem [8]): 3.43
48 | 3.48 | O=C(c1cccc(Cl)c1)c1ccc2n1CCC2C(=O)O (configuration not stated) | pKa (physchem [8]): 3.44
49 | 2.57 | CC(C)C(=O)Nc1cccc(C(=O)c2ccc3n2CCC3C(=O)O)c1 (configuration not stated) | 
50 | 2.17 | O=C(c1ccc(O)cc1)c1ccc2n1CCC2C(=O)O (configuration not stated) [P-HYDROXY KETOROLAC] | 

Row | SMILES | logP (physchem [1]) | further results
51 | O=C(c1ccc(F)cc1)c1ccc2n1CCC2C(=O)O (configuration not stated) | 2.82 | ED50 (Rattus norvegicus [2]): 1.7 mg/kg; Activity (Rattus norvegicus [3]): 1; ED30 (Rattus norvegicus [4]): 15 mg/kg; ED50 (Mus musculus [5]): 70 mg/kg; ED50 (Rattus norvegicus [6]): 13 mg/kg/day; minimal effective dose (Rattus norvegicus [7]): 5 mg/kg/day; selectivity ratio (in vivo): 20; pKa (physchem [8]): 3.51; ED30 (Rattus norvegicus [9]): 3 mg/kg
52 | Cc1ccc(C(=O)c2ccc3n2CCC3C(=O)O)cc1 (configuration not stated) | 3.24 | ED50 (Rattus norvegicus [2]): 1.7 mg/kg; ED30 (Rattus norvegicus [4]): 15 mg/kg; ED50 (Mus musculus [5]): 70 mg/kg; ED50 (Rattus norvegicus [6]): 15 mg/kg/day; minimal effective dose (Rattus norvegicus [7]): 3 mg/kg/day; pKa (physchem [8]): 3.44; ED30 (Rattus norvegicus [9]): 3 mg/kg; selectivity ratio [10]: 8
53 | C=Cc1ccc(C(=O)c2ccc3n2CCC3C(=O)O)cc1 (configuration not stated) | 3.47 | ED50 (Rattus norvegicus [2]): 1.7 mg/kg; ED30 (Rattus norvegicus [4]): 15 mg/kg; ED50 (Mus musculus [5]): 70 mg/kg; ED50 (Rattus norvegicus [6]): 13 mg/kg/day; Activity (Mus musculus [11]): ~200; minimal effective dose (Rattus norvegicus [7]): 5 mg/kg/day; selectivity ratio (in vivo): 18; ED30 (Rattus norvegicus [9]): 3 mg/kg
54 | COc1ccc(C(=O)c2ccc3n2CCC3C(=O)O)cc1 (configuration not stated) [ANIROLAC] | 2.81 | ED50 (Rattus norvegicus [2]): 1.7 mg/kg; ED30 (Rattus norvegicus [4]): 15 mg/kg; ED50 (Mus musculus [5]): 70 mg/kg; ED50 (Rattus norvegicus [6]): 22 mg/kg/day; minimal effective dose (Rattus norvegicus [7]): 7 mg/kg/day; selectivity ratio (in vivo): 39; pKa (physchem [8]): 3.55; ED30 (Rattus norvegicus [9]): 3 mg/kg
55 | O=C(c1ccccc1)c1ccc2n1CCC2C(=O)O (configuration not stated) [KETOROLAC] | 2.72 | ED50 (Rattus norvegicus [2]): 1.7 mg/kg; ED30 (Rattus norvegicus [4]): 15 mg/kg; ED50 (Mus musculus [5]): 70 mg/kg; ED50 (Rattus norvegicus [6]): 13 mg/kg/day; minimal effective dose (Rattus norvegicus [7]): 5 mg/kg/day; pKa (physchem [8]): 3.49; ED30 (Rattus norvegicus [9]): 3 mg/kg; selectivity ratio [10]: 18

Reference: ChEMBL document CHEMBL1123117, “Synthesis and antiinflammatory and analgesic activity of 5-aroyl-1,2-dihydro-3H-pyrrolo[1,2-a]pyrrole-1-carboxylic acids and related compounds” (J Med Chem, 1985)
